A word on the Kd: it is the free concentration of one partner at which half of the binding sites on the other are occupied at equilibrium, for simple one-to-one binding. Low values mean a tighter complex, high ones a looser complex.

The structures appear in SMILES notation.

The results in this text go back to patent US12612410B2 (CHILDREN'S HOSPITAL MEDICAL CENTER, priority 2020, dated 2026).

Assay [1] addresses T1, FLT3 Autoinh. (Homo sapiens, UniProt P36888).
T1 construct: host or cells: E. coli BL21-derived host (T7 phage) or HEK-293
T1 sequence (P36888 564-993 limits assumed): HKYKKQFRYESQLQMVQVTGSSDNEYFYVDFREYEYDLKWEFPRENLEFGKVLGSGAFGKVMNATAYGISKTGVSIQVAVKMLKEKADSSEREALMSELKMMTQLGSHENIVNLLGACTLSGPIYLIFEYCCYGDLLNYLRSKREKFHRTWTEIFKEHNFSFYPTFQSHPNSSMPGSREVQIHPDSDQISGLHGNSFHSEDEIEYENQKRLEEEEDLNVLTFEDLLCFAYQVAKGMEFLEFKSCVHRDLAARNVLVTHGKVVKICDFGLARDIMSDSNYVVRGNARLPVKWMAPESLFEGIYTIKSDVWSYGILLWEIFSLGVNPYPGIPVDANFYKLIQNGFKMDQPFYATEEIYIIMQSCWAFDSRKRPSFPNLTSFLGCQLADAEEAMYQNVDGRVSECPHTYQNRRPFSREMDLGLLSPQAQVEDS
In words: DiscoverX KINOMEscan competition binding, FLT3 Autoinh. The source says:
Kinase binding data were obtained for various exemplary compounds prepared according to Examples 1-24 using the DiscoverX KINOMVIEscan® active site-directed competition binding site-directed assay protocol described below. […] As a result, the data report thermodynamic interaction affinities (Kd values), rather than IC50 values that are dependent on ATP concentrations. The assay uses a DNA-tagged version of the protein kinase, and an immobilized ligand bound to a solid support. Compounds that directly or indirectly prevent kinase binding to the immobilized ligand reduce the amount of kinase captured on the solid support, which is detected using an ultra-sensitive qPCR method. Affinity constants reported from the assay have been reported to be independent of the immobilized ligand used that is coupled to the solid support (See supplemental information in Fabian, M. A. et. al., (2005) Nat. Biotechnol. 23, 329-336; Wodicka, L. M. et. al., (2010) Chem. Biol. 17, 1241-1249.)
Kinase-tagged T7 phage strains were prepared in an E. coli host derived from the BL21 strain. E. coli were grown to log-phase and infected with T7 phage and incubated with shaking at 32° C. until lysis. The lysates were centrifuged and filtered to remove cell debris. The remaining kinases were produced in HEK-293 cells and subsequently tagged with DNA for qPCR detection. Streptavidin-coated magnetic beads were treated with biotinylated small molecule ligands for 30 minutes at room temperature to generate affinity resins for kinase assays. The liganded beads were blocked with excess biotin and washed with blocking buffer (SeaBlock (Pierce), 1% BSA, 0.05% Tween 20, 1 mM DTT) to remove unbound ligand and to reduce non-specific binding. Binding reactions were assembled by combining kinases, liganded affinity beads, and test compounds in 1× binding buffer (20% SeaBlock, 0.17×PBS, 0.05% Tween 20, 6 mM DTT). Test compounds were prepared as 111× stocks in 100% DMSO. Kds were determined using an 11-point 3-fold compound dilution series with three DMSO control points. All compounds for Kd measurements are distributed by acoustic transfer (non-contact dispensing) in 100% DMSO. The compounds were then diluted directly into the assays such that the final concentration of DMSO was 0.9%. All reactions were performed in polypropylene 384-well plates. Each was a final volume of 0.02 mL. The assay plates were incubated at room temperature with shaking for 1 hour and the affinity beads were washed with wash buffer (1×PBS, 0.05% Tween 20). The beads were then re-suspended in elution buffer (1×PBS, 0.05% Tween 20, 0.5 μM nonbiotinylated affinity ligand) and incubated at room temperature with shaking for 30 minutes. The kinase concentration in the eluates was measured by qPCR.
Binding constants (Kds) were calculated with a standard dose-response curve using the Hill equation. The Hill Slope was set to −1. Curves were fitted using a non-linear least square fit with the Levenberg-Marquardt algorithm.

Assay [2] concerns the target T2, FLT3 (Homo sapiens, UniProt P36888).
T2 sequence (P36888 27-993): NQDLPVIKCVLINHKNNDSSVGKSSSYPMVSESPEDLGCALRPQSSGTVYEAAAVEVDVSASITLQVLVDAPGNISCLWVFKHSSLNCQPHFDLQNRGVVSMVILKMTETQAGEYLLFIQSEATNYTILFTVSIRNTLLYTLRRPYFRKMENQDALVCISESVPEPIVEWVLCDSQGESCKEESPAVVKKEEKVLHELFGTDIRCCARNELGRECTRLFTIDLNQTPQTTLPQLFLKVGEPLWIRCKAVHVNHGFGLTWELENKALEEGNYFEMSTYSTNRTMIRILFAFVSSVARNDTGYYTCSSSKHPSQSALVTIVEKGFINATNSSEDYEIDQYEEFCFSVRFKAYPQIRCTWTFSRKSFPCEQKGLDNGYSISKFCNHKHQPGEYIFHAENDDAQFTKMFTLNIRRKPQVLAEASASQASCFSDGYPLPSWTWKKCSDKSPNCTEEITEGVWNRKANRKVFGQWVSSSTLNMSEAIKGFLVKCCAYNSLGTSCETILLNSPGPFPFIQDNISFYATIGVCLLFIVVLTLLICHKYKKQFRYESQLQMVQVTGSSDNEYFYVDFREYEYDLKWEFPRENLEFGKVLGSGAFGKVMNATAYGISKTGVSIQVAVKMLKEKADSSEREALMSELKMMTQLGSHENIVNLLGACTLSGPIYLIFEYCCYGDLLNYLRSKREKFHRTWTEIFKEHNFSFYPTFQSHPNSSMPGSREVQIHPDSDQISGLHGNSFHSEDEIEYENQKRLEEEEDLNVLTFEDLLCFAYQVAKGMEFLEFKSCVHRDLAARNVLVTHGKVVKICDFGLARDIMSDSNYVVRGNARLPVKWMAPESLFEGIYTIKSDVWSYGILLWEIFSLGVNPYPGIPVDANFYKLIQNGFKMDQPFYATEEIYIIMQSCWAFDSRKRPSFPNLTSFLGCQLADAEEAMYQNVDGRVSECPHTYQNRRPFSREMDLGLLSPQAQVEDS
Put plainly: DiscoverX KINOMEscan competition binding, FLT3. The arrangement: purchased Reaction Biology (RBC), HotSpot kinase assay.

For `CC1(c2cn3c(-c4cccc(N[C@H]5CNC[C@@H]5F)n4)cnc3cn2)CC1` [Compound 1, N-((3S,4S)-4-fluoropyrrolidin-3-yl)-6-(6-(1-methylcyclopropyl)imidazo[1,2-a]pyrazin-3-yl)pyridin-2-amine], the Kd in assay [1] stood at 1 nM; in assay [2], 0.049 nM.
For `CC1(c2cn3c(-c4cccc(N[C@@H]5CCNC5)n4)cnc3cn2)CC1` [Compound 3, (R)-6-(6-(1-methylcyclopropyl)imidazo[1,2-a]pyrazin-3-yl)-N-(pyrrolidin-3-yl)pyridin-2-amine] the same measures were 1.4 nM and 0.056 nM.
As to `CC1(c2cn3c(-c4cccc(N[C@H]5CNCC56CC6)n4)cnc3cn2)CC1` [Compound 5, (R)-N-(6-(6-(1-methylcyclopropyl)imidazo[1,2-a]pyrazin-3-yl)pyridin-2-yl)-5-azaspiro[2.4]heptan-7-amine], the Kd in assay [1] was 0.88 nM; in assay [2], 0.027 nM.
Regarding `FC(F)(F)C1(c2cn3c(-c4cccc(N[C@@H]5CCNC5)n4)cnc3cn2)CC1` [Compound 10, (R)-N-(pyrrolidin-3-yl)-6-(6-(1-(trifluoromethyl)cyclopropyl)imidazo[1,2-a]pyrazin-3-yl)pyridin-2-amine], the Kd in assay [1] stood at 4.2 nM; in assay [2], 0.38 nM.
For `FC(F)c1cn2c(-c3cccc(N[C@H]4CNC[C@@H]4F)n3)cnc2cn1` [Compound 16, 6-(6-(difluoromethyl)imidazo[1,2-a]pyrazin-3-yl)-N-((3S,4S)-4-fluoropyrrolidin-3-yl)pyridin-2-amine] the same measures were 3 nM and 0.42 nM.
In the same order, the values of `FC(F)c1cn2c(-c3cccc(N[C@H]4CNCC[C@@H]4F)n3)cnc2cn1` [Compound 25, 6-(6-(difluoromethyl)imidazo[1,2-a]pyrazin-3-yl)-N-((3S,4S)-4-fluoropiperidin-3-yl)pyridin-2-amine] are 3.6 nM and 0.13 nM.
In the same order, the values of `CC(C)(O)c1cn2c(-c3cccc(N[C@@H]4CCCNC4)n3)cnc2cn1` [Compound 30, (R)-2-(3-(6-(piperidin-3-ylamino)pyridin-2-yl)imidazo[1,2-a]pyrazin-6-yl)propan-2-ol] are 22 nM and 1.5 nM.
For `CC(C)(O)c1cn2c(-c3cccc(N[C@H]4CNCC[C@@H]4F)n3)cnc2cn1` [Compound 31, 2-(3-(6-(((3S,4S)-4-fluoropiperidin-3-yl)amino)pyridin-2-yl)imidazo[1,2-a]pyrazin-6-yl)propan-2-ol], the Kd in assay [1] was determined as 10 nM; in assay [2], 0.55 nM.
Consider `FC(F)(F)COc1cn2c(-c3cccc(N[C@@H]4CCNC4)n3)cnc2cn1` [Compound 38, (R)-N-(pyrrolidin-3-yl)-6-(6-(2,2,2-trifluoroethoxy)imidazo[1,2-a]pyrazin-3-yl)pyridin-2-amine], for which the Kd came to 7.6 nM in assay [1] and 0.61 nM in assay [2].
As to `F[C@H]1CNC[C@@H]1Nc1cccc(-c2cnc3cnc(C4CC4)cn23)n1` [Compound 50, 6-(6-cyclopropylimidazo[1,2-a]pyrazin-3-yl)-N-((3S,4S)-4-fluoropyrrolidin-3-yl)pyridin-2-amine], the results for the Kd in assay [1] and in assay [2] were 1.9 nM and 0.062 nM, respectively.
In the same order, the values of `Cn1cc(-c2cn3c(-c4cccc(N[C@H]5CNC[C@@H]5F)n4)cnc3cn2)cn1` [Compound 52, N-((3S,4S)-4-fluoropyrrolidin-3-yl)-6-(6-(1-methyl-1H-pyrazol-4-yl)imidazo[1,2-a]pyrazin-3-yl)pyridin-2-amine] are 1.8 nM and 0.035 nM.
